Test results reported in US7361743B2 (Pfizer Inc, priority 2004, dated 2008).
≈ marks a conversion by molar mass, not a printed value. Like-named read-outs stand apart in the source and are kept apart here.

Assays:
Haemophilus influenzae = test: Susceptibility testing, NCCLS microdilution MIC; assay type: cell-based; settings: Haemophilus influenzae, Example A′
Enterococcus faecalis = test: Susceptibility testing, NCCLS microdilution MIC; assay type: cell-based; settings: Enterococcus faecalis, Example A′
Bacteroides fragilis = test: Susceptibility testing, NCCLS microdilution MIC (anaerobe); assay type: cell-based; settings: Bacteroides fragilis, ATCC25285; B. fragilis ATCC 25285; Example A′; read-out: MIC B. fragilis
Staphylococcus aureus = test: Susceptibility testing, NCCLS microdilution MIC; assay type: cell-based
[1] = system: E. coli transcription/translation (bacterial protein synthesis, E. coli S30 extract); test: In vitro inhibition of E. coli transcription and translation assay (TT), cell-free; assay type: biochemical; settings: for IC50: cell-free E. coli S30 extract; for In vitro inhibition of E. coli transcription and translation compared with literature azepine compound VIII(18): cell-free TT assay, comparison in words
Experimental: Inhibition of bacterial protein synthesis was assayed in a cell-free E. coli transcription/translation assay.
Stock solutions of compounds were prepared at 10 mg/mL in DMSO. The assay contained less or equal to 1% (v/v) final concentration of DMSO. Three-fold serial dilutions were prepared in assay buffer at 6-fold final concentration in 96 well microtiter plate.
All vials, tubes and microtiter plates are RNase free. The Mix was freshly prepared with 10 μl H2O, 10 μl AA-M, 10 μl AA-L, 80 μl Premix and 50 μl ES30 extract. The assay was performed in a 96-well plate. Five microliters of compounds at various concentrations (6-fold final assay concentration) were preincubated with 20 μl of the mix for 5 min at room temperature. The reaction started with addition of 5 μl of plasmid (˜0.1 mg/mL pGEMBGAL), and kept at 37° C. for 1 h followed by the addition of 150 μl of OPNG solution (4 mg/mL OPNG in 0.1M NaPi, pH 7.5, 1 mM MgCl2 and 2 mM DTT). 150 μl of the reaction was transferred to a ½-area plate and increase in absorption at OD420 nm was monitored for 10 min using a Spectramax plate reader (Molecular Devices). The slope of absorption change over time is corresponding to the pathway activity.
The E. coli S30 Extract for circular DNA kit was purchased from Promega. Original plasmid pGEMBGAL was obtained from Promega and amplified via Maxiprep in house. 2-Nitrophenyl β-D-galactopyranoside was obtained from Sigma. Clindamycin HCl (USP) was purchased from Spectrum.
The inhibition are expressed as percent of control activity (without inhibitor) which is calculated according to equation (1): Inhibition %=(compound slope-blank slope)/(control slope-blank slope)*100 (1)
All IC50s were determined by fitting the experimental data to equation (2) using software DeltaGraph (DeltaPoint Inc.): Y=Y0/(1+(X/IC50)[…])+c (2)
Where Y: activity at given inhibitor concentration; Y0: activity without inhibitor; X: inhibitor concentration; d: slope; c: constant.
Lincosamides inhibit bacterial growth through binding to the bacterial 50S ribosome, thus inhibiting peptide bond formation. The transcription/translation assay provides a screening tool to measure inhibition of bacterial protein synthesis pathway at the target level without the complication of differences in membrane permeability.

[2] = system: Staphylococcus aureus Smith; test: Efficacy in murine S. aureus septicemia; assay type: in vivo, ICR mice; settings: for Efficacy in the murine S. aureus septicemia model relative to clindamycin: IV route of administration, compound given 1 hour after inoculation; for Efficacy in the murine S. aureus septicemia model relative to clindamycin / Efficacy in the murine S. aureus septicemia model by oral route: mice; for ED50: Staphylococcus aureus, murine S. aureus Smith septicemia, dosed 1 hour after inoculation, mortality 7 days; for Efficacy in the murine S. aureus septicemia model by oral route: oral route of administration
Experimental: (§1) Efficacy studies were performed in an S. aureus murine septicemia model according to models published elsewhere (Goldstein, B. P., G. Candiani, T. M. Arain, G. Romano, I. Ciciliato, M. Berti, M. Abbondi, R. Scotti, M. Mainini, F. Ripamonti, and et al. 1995. Antimicrobial activity of MDL 63,246, a new semisynthetic glycopeptide antibiotic Antimicrob. Agents Chemother. 39:1580-1588; Misiek, M., T. A. Pursiano, F. Leitner, and K. E. Price 1973. Microbiological properties of a new cephalosporin, BL-S 339:7-(phenylacetimidoyl-aminoacetamido)-3-(2-methyl-1,3,4-thiadiazol-5-ylthio methyl)ceph-3-em-4-carboxylic acid Antimicrob. Agents Chemother. 3:40-48).
Compounds were dissolved in 2% Tween 80 for oral dosing or 0.9% NaCl solution for intravenous dosing. Compounds were administered at 1 hour after bacterial inoculation. Vancomycin or ampicillin were used as controls.
(§2) Male or female ICR mice weighing 22±2 g from MDS Pharma Services were used for the evaluation. Food and water was given ad libitum. Groups of 6 mice weighing […] were used for the experiment. Mice were inoculated intraperitoneally with Staphylococcus aureus Smith at 4 104 CFU in 0.5 ml of Brain Heart Infusion Broth (Difco) containing 5% mucin (Sigma). Mortality was recorded once daily for 7 days following bacterial inoculation.
as §1, with “39:1580-1588.;” for “39:1580-1588;”, “339: 7-(phenylacetimidoyl-aminoacetamido)-3-(2-methyl-1,3,4-thiadiazol-5-ylthio” for “339:7-(phenylacetimidoyl-aminoacetamido)-3-(2-methyl-1,3,4-thiadiazol-5-ylthio”
as §2, with “mL” for “ml”

[3] = ATCC31517, H. influenzae ATCC 31517, read-out: MIC H. influenzae
[4] = ATCC29212, E. faecalis ATCC 29212, read-out: MIC E. faecalis
[5] = ATCC25923, S. aureus ATCC 25923, Example A′, read-out: MIC S. aureus
[6] = intravenous administration, read-out: ED50, IV
[7] = oral administration, read-out: ED50, PO

SMILES | MIC (Haemophilus influenzae; [3]) [mg/L] | MIC (Enterococcus faecalis; [4]) [mg/L] | MIC (Bacteroides fragilis) [mg/L] | MIC (Staphylococcus aureus; [5]) [mg/L] | IC50 [1] [µM] | In vitro inhibition of E. coli transcription and translation compared with literature azepine compound VIII(18) [1] | Efficacy in the murine S. aureus septicemia model relative to clindamycin [2] | ED50 [2, 6] [mg/kg] | ED50 [2, 7] [mg/kg] | Efficacy in the murine S. aureus septicemia model by oral route [2] | MIC (Haemophilus influenzae; strain not stated, 24 h at 35° C., read-out: MIC against Haemophilus influenzae) [mg/L] | MIC (Enterococcus faecalis; strain not stated, 24 h at 35° C., read-out: MIC against Enterococcus faecalis) [mg/L] | MIC (Staphylococcus aureus; Example A′, strain not stated, 24 h at 35° C., read-out: MIC against Staphylococcus aureus) [mg/L]
CS[C@H]1O[C@H]([C@H](NC(=O)C2CC[C@H](CCCCF)CCN2)[C@H](C)Cl)[C@H](O)[C@H](O)[C@H]1O (stereo in doubt) [Example 3′, 5-(4-Fluoro-butyl)-azepane-2-carboxylic acid [2-chloro-1-(3,4,5-trihydroxy-6-methylsulfanyl-tetrahydro-pyran-2-yl)-propyl]-amide] | 0.25 (≈ 0.531 µM) | 0.06 (≈ 0.127 µM) | 0.5 (≈ 1.06 µM) | 0.03 (≈ 0.0637 µM) | 0.19 | markedly superior | three to greater than five fold better | 0.32 |  |  |  |  | 
CS[C@H]1O[C@H]([C@H](NC(=O)C2CC[C@H](CCCCF)CCN2)C(C)C)[C@H](O)[C@H](O)[C@H]1O (stereo in doubt) [Example 4′, 5-(4-Fluoro-butyl)-azepane-2-carboxylic acid [2-methyl-1-(3,4,5-trihydroxy-6-methylsulfanyl-tetrahydro-pyran-2-yl)-propyl]-amide] | 0.5 (≈ 1.11 µM) | 0.125 (≈ 0.277 µM) | 1 (≈ 2.22 µM) | 0.06 (≈ 0.133 µM) | 0.49 | markedly superior | three to greater than five fold better | 0.28 |  |  |  |  | 
CS[C@H]1O[C@H]([C@H](NC(=O)C2CC[C@H](CCCF)CCN2)[C@H](C)Cl)[C@H](O)[C@H](O)[C@H]1O (stereo in doubt) [Example 5′, 5-(3-Fluoro-propyl)-azepane-2-carboxylic acid [2-chloro-1-(3,4,5-trihydroxy-6-methylsulfanyl-tetrahydro-pyran-2-yl)-propyl]-amide] | 0.25 (≈ 0.547 µM) | 0.06 (≈ 0.131 µM) | 0.25 (≈ 0.547 µM) | 0.03 (≈ 0.0656 µM) | 2.41 | markedly superior | three to greater than five fold better | 0.18 | 6.84 | demonstrated the potential for use of the compounds as orally administered therapeutic agents |  |  | 
CS[C@H]1O[C@H]([C@H](NC(=O)C2CC[C@H](CCCC#N)CCN2)[C@H](C)Cl)[C@H](O)[C@H](O)[C@H]1O (stereo in doubt) [Example 7′, 5-(3-Cyano-propyl)-azepane-2-carboxylic acid [2-chloro-1-(3,4,5-trihydroxy-6-methylsulfanyl-tetrahydro-pyran-2-yl)-propyl]-amide] | 0.5 (≈ 1.08 µM) | 0.25 (≈ 0.539 µM) | 4 (≈ 8.62 µM) | 0.125 (≈ 0.269 µM) | 0.32 | markedly superior | three to greater than five fold better | 0.29 | > 30 |  |  |  | 
CS[C@H]1O[C@H]([C@H](NC(=O)C2CC[C@H](CCCF)CCN2)C(C)C)[C@H](O)[C@H](O)[C@H]1O (stereo partly shown) [Example 6′] | 2 (≈ 4.58 µM) | 0.25 (≈ 0.573 µM) | 1 (≈ 2.29 µM) | 0.06 (≈ 0.137 µM) | 0.76 | markedly superior | three to greater than five fold better | 0.28 |  |  |  |  | 
COCCC[C@@H]1CCN[C@H](C(=O)N[C@@H]([C@H]2O[C@H](SC)[C@H](O)[C@@H](O)[C@H]2O)[C@H](C)Cl)CC1 [Example 13′, 5-(3-Methoxy-propyl)-azepane-2-carboxylic acid [2-chloro-1-(3,4,5-trihydroxy-6-methylsulfanyl-tetrahydro-pyran-2-yl)-propyl]-amide] | 1 (≈ 2.13 µM) | 0.5 (≈ 1.07 µM) | 4 (≈ 8.53 µM) | 0.06 (≈ 0.128 µM) | 0.83 | markedly superior | three to greater than five fold better | 0.28 | 6.84 | demonstrated the potential for use of the compounds as orally administered therapeutic agents |  |  | 
CS[C@H]1O[C@H]([C@H](NC(=O)[C@@H]2CCCCCN2)[C@H](C)Cl)[C@H](O)[C@H](O)[C@H]1O [VIII(18), Azepane-2-carboxylic acid [2-chloro-1-(3,4,5-trihydroxy-6-methylsulfanyl-tetrahydro-pyran-2-yl)-propyl]-amide, reference compound] | > 8 | 8 (≈ 20.2 µM) | 2 (≈ 5.04 µM) | 4 (≈ 10.1 µM) | 21 |  |  |  |  |  | > 8 | 8 (≈ 20.2 µM) | 4 (≈ 10.1 µM)
